From ChEMBL document CHEMBL4002623, “Synthesis and in vitro activity of dicationic indolyl diphenyl ethers as novel potent antibiotic agents against drug-resistant bacteria” (Bioorg Med Chem Lett, 2017)
In brackets after ≈: the same amount, converted by molar mass.

Tests used:
Escherichia coli [1] = test: Antibacterial activity against extended-spectrum beta-lactamase-positive Escherichia coli 09-1 by agar dilution method; assay type: functional
Staphylococcus aureus [2] = test: Antibacterial activity against methicillin-resistant Staphylococcus aureus 09-13 by agar dilution method; assay type: functional
Klebsiella aerogenes = test: Antibacterial activity against Enterobacter aerogenes 45102 by agar dilution method; assay type: functional
Enterococcus faecium [3] = test: Antibacterial activity against vancomycin-resistant Enterococcus faecium ATCC 700221 by agar dilution method; assay type: functional
Escherichia coli [4] = test: Antibacterial activity against extended-spectrum beta-lactamase-negative Escherichia coli 1515 by agar dilution method; assay type: functional
Pseudomonas aeruginosa [5] = test: Antibacterial activity against Pseudomonas aeruginosa 09-14 by agar dilution method; assay type: functional
[6] = test system: Acinetobacter calcoaceticus; test: Antibacterial activity against Acinetobacter calcoaceticus ATCC 19606 by agar dilution method; assay type: functional
Serratia marcescens = test: Antibacterial activity against Serratia marcescens 41002 by agar dilution method; assay type: functional
Staphylococcus aureus [7] = test: Antibacterial activity against methicillin-sensitive Staphylococcus aureus 15 by agar dilution method; assay type: functional
Pseudomonas aeruginosa [8] = test: Antibacterial activity against Pseudomonas aeruginosa ATCC 27853 by agar dilution method; assay type: functional
Enterococcus faecium [9] = test: Potency index, ratio of levofloxacin MIC to test compound MIC for vancomycin-resistant Enterococcus faecium ATCC 700221; assay type: functional
[10] = Cytotoxicity against HEK293T cells after 48 hrs by MTS assay; assay type: cell-based, HEK-293T; conditions: human
Klebsiella pneumoniae [11] = test: Antibacterial activity against extended-spectrum beta-lactamase-negative Klebsiella pneumoniae 7 by agar dilution method; assay type: functional
[12] = test system: Staphylococcus epidermidis; test: Antibacterial activity against methicillin-sensitive Staphylococcus epidermidis ATCC 12228 by agar dilution method; assay type: functional
Enterococcus faecium [13] = test: Antibacterial activity against vancomycin-sensitive Enterococcus faecium 09-10 by agar dilution method; assay type: functional
Enterococcus faecalis [14] = test: Antibacterial activity against vancomycin-sensitive Enterococcus faecalis 09-8 by agar dilution method; assay type: functional
Klebsiella pneumoniae [15] = test: Antibacterial activity against extended-spectrum beta-lactamase-negative Klebsiella pneumoniae 09-8 by agar dilution method; assay type: functional
Staphylococcus aureus [16] = test: Antibacterial activity against methicillin-resistant Staphylococcus aureus ATCC 33591 by agar dilution method; assay type: functional
Enterobacter cloacae = test: Antibacterial activity against Enterobacter cloacae 45301 by agar dilution method; assay type: functional
Staphylococcus aureus [17] = test: Antibacterial activity against methicillin-sensitive Staphylococcus aureus ATCC 29213 by agar dilution method; assay type: functional
Klebsiella pneumoniae [18] = test: Antibacterial activity against extended-spectrum beta-lactamase-positive Klebsiella pneumoniae ATCC 700603 by agar dilution method; assay type: functional
Salmonella typhi = test: Antibacterial activity against Salmonella typhi H901 by agar dilution method; assay type: functional, Salmonella enterica subsp. enterica serovar Typhi; conditions: Salmonella enterica
Enterococcus faecalis [19] = test: Antibacterial activity against vancomycin-resistant Enterococcus faecalis ATCC 51299 by agar dilution method; assay type: functional
Enterococcus faecium [20] = test: Antibacterial activity against vancomycin-resistant Enterococcus faecium 05-8 by agar dilution method; assay type: functional
Klebsiella pneumoniae [21] = test: Antibacterial activity against Klebsiella pneumoniae ATCC BAA-2146 expressing NDM-1 by agar dilution method; assay type: functional
[22] = test system: Staphylococcus epidermidis; test: Antibacterial activity against methicillin-resistant Staphylococcus epidermidis 09-3 by agar dilution method; assay type: functional
Enterococcus faecalis [23] = test: Antibacterial activity against vancomycin-sensitive Enterococcus faecalis ATCC 29212 by agar dilution method; assay type: functional
Enterococcus faecalis [24] = test: Potency index, ratio of levofloxacin MIC to test compound MIC for vancomycin-resistant Enterococcus faecalis 09-9; assay type: functional
Escherichia coli [25] = test: Antibacterial activity against extended-spectrum beta-lactamase-negative Escherichia coli ATCC 25922 by agar dilution method; assay type: functional
Enterococcus faecalis [26] = test: Antibacterial activity against vancomycin-resistant Enterococcus faecalis 09-9 by agar dilution method; assay type: functional
[27] = test system: Staphylococcus epidermidis; test: Potency index, ratio of levofloxacin MIC to test compound MIC for methicillin-resistant Staphylococcus epidermidis 09-3; assay type: functional
[28] = test system: Staphylococcus epidermidis; test: Antibacterial activity against methicillin-sensitive Staphylococcus epidermidis 09-9 by agar dilution method; assay type: functional
Staphylococcus aureus [29] = test: Potency index, ratio of levofloxacin MIC to test compound MIC for methicillin-resistant Staphylococcus aureus 09-13; assay type: functional
Morganella morganii = test: Antibacterial activity against Morganella morganii ATCC 25830 by agar dilution method; assay type: functional
Proteus vulgaris = test: Antibacterial activity against Proteus vulgaris ATCC 29905 by agar dilution method; assay type: functional
Staphylococcus aureus [30] = test: Antibacterial activity against methicillin-sensitive Staphylococcus aureus 09-6 by agar dilution method; assay type: functional
Citrobacter freundii = test: Antibacterial activity against Citrobacter freundii ATCC 43864 by agar dilution method; assay type: functional
Pseudomonas aeruginosa [31] = test: Antibacterial activity against Pseudomonas aeruginosa PAO1 by agar dilution method; assay type: functional
Escherichia coli [32] = test: Antibacterial activity against extended-spectrum beta-lactamase-negative Escherichia coli 09-20 by agar dilution method; assay type: functional
Proteus mirabilis = test: Antibacterial activity against Proteus mirabilis 09-1 by agar dilution method; assay type: functional
Providencia rettgeri = test: Antibacterial activity against Providencia rettgeri ATCC 31052 by agar dilution method; assay type: functional
Klebsiella pneumoniae [33] = test: Antibacterial activity against extended-spectrum beta-lactamase-positive Klebsiella pneumoniae 09-25 by agar dilution method; assay type: functional

N=C(c1ccc2cc(-c3ccc(Oc4ccc(-c5cc6ccc(C(=N)N7CCC7)cc6[nH]5)cc4)cc3)[nH]c2c1)N1CCC1
MIC (Escherichia coli [1]): 64 µg/mL (≈ 113 µM) | MIC (Staphylococcus aureus [2]): 0.5 µg/mL (≈ 0.885 µM) | MIC (Klebsiella aerogenes): 64 µg/mL (≈ 113 µM) | MIC (Enterococcus faecium [3]): 2 µg/mL (≈ 3.54 µM) | MIC (Escherichia coli [4]): 64 µg/mL (≈ 113 µM) | MIC (Pseudomonas aeruginosa [5]): > 128 µg/mL | MIC [6]: > 128 µg/mL | MIC (Serratia marcescens): 128 µg/mL (≈ 227 µM) | MIC (Staphylococcus aureus [7]): 0.5 µg/mL (≈ 0.885 µM) | MIC (Pseudomonas aeruginosa [8]): 128 µg/mL (≈ 227 µM) | Ratio (Enterococcus faecium [9]): 16 - 64 | CC50 at 48 h [10]: 21.6 µg/mL (≈ 38.3 µM) | MIC (Klebsiella pneumoniae [11]): 64 µg/mL (≈ 113 µM) | MIC [12]: 0.125 µg/mL (≈ 0.221 µM) | MIC (Enterococcus faecium [13]): 8 µg/mL (≈ 14.2 µM) | MIC (Enterococcus faecalis [14]): 2 µg/mL (≈ 3.54 µM) | MIC (Klebsiella pneumoniae [15]): 64 µg/mL (≈ 113 µM) | MIC (Staphylococcus aureus [16]): 0.5 µg/mL (≈ 0.885 µM) | MIC (Enterobacter cloacae): > 128 µg/mL | MIC (Staphylococcus aureus [17]): 2 µg/mL (≈ 3.54 µM) | MIC (Klebsiella pneumoniae [18]): 64 µg/mL (≈ 113 µM) | MIC (Salmonella typhi): 32 µg/mL (≈ 56.7 µM) | MIC (Enterococcus faecalis [19]): 2 µg/mL (≈ 3.54 µM) | MIC (Enterococcus faecium [20]): 2 µg/mL (≈ 3.54 µM) | MIC (Klebsiella pneumoniae [21]): 64 to 128 µg/mL (≈ 113 to 227 µM) | MIC [22]: 0.5 µg/mL (≈ 0.885 µM) | MIC (Enterococcus faecalis [23]): 2 µg/mL (≈ 3.54 µM) | Ratio (Enterococcus faecalis [24]): 16 - 64 | MIC (Escherichia coli [25]): 16 µg/mL (≈ 28.3 µM) | MIC (Enterococcus faecalis [26]): 8 µg/mL (≈ 14.2 µM) | Ratio [27]: 4 - 8 | MIC [28]: 0.5 µg/mL (≈ 0.885 µM) | Ratio (Staphylococcus aureus [29]): 4 - 8 | MIC (Morganella morganii): 8 µg/mL (≈ 14.2 µM) | MIC (Proteus vulgaris): 128 µg/mL (≈ 227 µM) | MIC (Staphylococcus aureus [30]): 2 µg/mL (≈ 3.54 µM) | MIC (Citrobacter freundii): 64 µg/mL (≈ 113 µM) | MIC (Pseudomonas aeruginosa [31]): > 128 µg/mL | MIC (Escherichia coli [32]): 64 µg/mL (≈ 113 µM) | MIC (Proteus mirabilis): 128 µg/mL (≈ 227 µM) | MIC (Providencia rettgeri): > 128 µg/mL | MIC (Klebsiella pneumoniae [33]): 64 to 128 µg/mL (≈ 113 to 227 µM)
